Assay results reported in patent US5656608A (priority 1995, dated 1997).
Where two headings read alike, the source gives them in different places.

Columns and labels:
[1] = system: rat liver (previously anoxic pericentral regions); test: cells; settings: for IC50: Rattus norvegicus
Method: Animals used: Male Sprague-Dawley rats weighing between 180-210 g and fed a Purina diet. Rats were fasted for 24 h prior to surgery.
Liver Perfusion: Rats were anesthetized with pentobarbital sodium (50 mg) before surgery and livers were removed surgically and perfused via a cannula inserted into the portal vein with Krebs-Henseleit bicarbonate buffer (pH 7.4, 37° C.) saturated with an oxygen-carbon dioxide (95:5) mixture in a non-recirculating system (Krebs-Henseleit, 1932). After surgery, livers were perfused at flow rates around 1 ml/g/min for 75 minutes (low-flow). Subsequently, livers were perfused at normal flow rates (4 ml/g/min) for 40 minutes (reflow).
Lactate dehydrogenase (LDH): LDH activity in the perfusate was determined using standard enzymatic techniques (Bergmeyer, 1988). […] After cooling, samples were centrifuged at 1000×g for 10 minutes and the absorbance of the supernatant was determined at 535 nm. Rates of release of LDH expressed per gram wet weight of liver per hour.
Trypan Blue Distribution Time and Histological Procedures: To assess microcirculation and cell death in the liver, trypan blue was infused into the liver at the end of all experiments at final concentrations of 0.2 mM (Belinsky et al., 1984). The time for the liver surface to turn evenly dark blue was recorded. Excess dye was removed by perfusion with Krebs-Henseleit buffer for an additional 10 minutes. Subsequently, livers were perfused with 1% paraformaldehyde for 10 minutes and fixed tissue was embedded in paraffin and processed for light microscopy. Sections were stained only with eosin, a cytoplasmic stain, so that trypan blue could be identified readily in the nuclei of damaged cells.
All nuclei of parenchymal cells in a zone radiating five cells from either periportal or pericentral regions were identified as trypan blue-positive or negative. The percentage of staining was calculated from the number of stained nuclei divided by the total number of cells in any given region.
Statistical Analysis: Student's-t-test or ANOVA was used where appropriate. Differences were considered significant when the p-value was less than 0.05.

[2] = system: lipopolysaccharide (LPS) endotoxic shock in rats; settings: for mortality: 5% glycine diet
Method: (§1) The rats were then injected lipopolysaccharide (LPS; 10, 20 and 30 mg/kg resp.) from the tail vein and mortality was assessed 24 hours after the injection.

[3] = system: AST (Aspartate Aminotransferase); settings: glycine diet; LPS 10 mg/kg; survivors; untreated fed 2000 IU/L
Method: as §1
b) From the survivors, the liver enzyme AST (Aspartate Aminotransferase; a transaminase) was measured as indication for liver damage.

liver and lung = settings: glycine diet; 24 hr after LPS 10 mg/kg
Method: d) Liver and lung specimens for histology were taken 24 hr after injection of LPS (10 mg/kg) and hematoxylin-eosin stained.

[4] = system: partial hepatic ischemia/reperfusion and LPS injection in rats; settings: glycine diet 3 days; 90 min partial hepatic ischemia/reperfusion; LPS 5 mg/kg; 24 hours; p<0.05; control 0 of 4
Method: A sublethal dose of LPS (5 mg/kg) was injected via tail vein 6 hr after reperfusion.

[5] = system: liver (steatosis, inflammation and necrosis)
Excerpt: Rats underwent liver biopsy and autopsy after 2 and 4 weeks of treatment with ethanol. Livers were formalin-fixed, embedded in paraffin and stained with hematoxylin and eosin to assess steatosis, inflammation and necrosis. Liver pathology was scored as described by Nanji et al. as follows: steatosis (the percent liver cells containing fat): <25%=1+; <50%=2+; <75%=3+, >75%=4+; inflammation and necrosis: 1 focus per low-power field=1+; 2 or more=2+.

[6] = body weight and ethanol intake during ethanol treatment; type: in vivo, Male Wistar rats; settings: liquid glycine diets; 4 weeks of ethanol
Method: (§2) In Male Wistar rats, weighing 300 to 320 mg each, intragastric cannulas were inserted as described by Tsukamoto and French. Cannulas were tunnelled subcutaneously to the dorsal aspect of the neck and attached to infusion pumps by means of a spring-tether device and swivel allowing complete mobility of rats in metabolic cages.
(§3) A liquid diet described by Thompson and Reitz was used.

[7] = system: tumour necrosis factor (TNF)
[8] = system: ethanol concentration in breath, feces, urine, blood and stomach; settings: for ethanol concentration, Feces / ethanol concentration, Stomach: * p < 0.05
Method: as §2, §3
Concentration of ethanol in urine, which are representative of blood alcohol levels were measured daily. Rats were housed in metabolic cages that separated urine from feces, and urine was collected over 24 hours in bottles containing mineral oil to prevent evaporation.
ANOVA or Student's t-test was used for determination of statistical significance as appropriate. […] A p value less than 0.05 was selected before the study as the level of significance.

[9] = system: Asparate Aminotransferase (AST); settings: for serum AST: 4 weeks, liquid control diet 183 IU/L
Method: as §2, §3
Blood was collected via the tail vein once a week and centrifuged. Serum was stored at -20° C. in a microtube until assayed for AST by standard enzymatic procedures.

infection = settings: in vivo
in vivo = settings: rat, iv, 10 mg/kg
variety of cells = settings: anoxia, potassium cyanide and t-butyl hydroxide; cited from earlier work
suspended hepatocytes = settings: injury by calcium ionophores or oxidative stress; cited from earlier work
liver graft = settings: added to liver graft storage solution; dogs; cited from earlier work
[10] = liquid 2% and 5% glycine diet, 4 weeks
[11] = Table 1, Mean ± S.E.M., ethanol with or without 5% glycine
[12] = Table 1, Mean ± S.E.M., ethanol with or without 5% glycine, ** p < 0.01
[13] = Table 1, Mean ± S.E.M., ethanol with or without 5% glycine, *** p < 0.001

NCC(=O)O [glycine]
LDH release and cell death during reperfusion (in words) [1]: minimized LDH release and cell death almost completely
MDA production during reperfusion [1]: tends to decrease with glycine, changes are not statistically significant
oxygen uptake (indicator of mitochondrial function) [1]: not altered
trypan blue distribution time ([1]; 2 mM glycine, 40 minutes of reperfusion, control about 460 seconds): about 250 seconds
trypan blue distribution time (in words) ([1]; 5 and 40 minutes after reflow): reduced significantly at 5 and 40 minutes after reflow
change of trypan blue distribution time at later vs earlier time point ([1]; 40 vs 5 minutes after reflow): about 2 fold
trypan blue distribution time ([1]; 5 minutes after reperfusion, control 225 seconds, p<0.05, n=5): about 190 seconds
IC50 ([1]; 40 min, read-out: half maximal decrease of trypan blue distribution time, 40 minutes of reflow): 180 µM
IC50 ([1]; read-out: half-maximal decrease of LDH release, rat liver, glycine infused from 10 min before reflow): 180 µM
IC50 ([1]; read-out: half-maximal effect (trypan blue distribution time; cytoprotective effect), reflow liver perfusion): 180 µM
enzyme (LDH) release, dose dependence (in words) ([1]; glycine 0.06-2 mM): minimizes enzyme release in a dose-dependent manner
protection in the rat liver reperfusion model ([1]; physiological concentrations of 240-300 mmol (in humans)): more than half maximal protection
protection against LPS mortality ([2]; 5% glycine diet 3 days, LPS 10 mg/kg, control 50% mortality, p<0.05): 100%
mortality ([2]; LPS 20 mg/kg, control 70%): 30%
mortality ([2]; LPS 30 mg/kg, control 100%): 90%
AST level [3]: markedly and significantly reduced
liver necrosis (histology) (liver and lung): less necrosis in the liver
pulmonary edema (histology) (liver and lung): less pulmonary edema
survival [4]: 5 rats out of 6
fatty changes (steatosis) [5, 10]: attenuated
necrosis and inflammation [5, 10]: almost totally absent
inflammation (statistics) ([5]; liquid glycine diets): only a tendency for reduction
reductions of steatosis and necrosis (statistics) ([5]; liquid glycine diets): statistically significantly
liver injury due to chronic intragastric ethanol exposure ([5]; rat): prevents liver injury
body weight [6]: no significant differences in body weight
time of serum TNF peak after injection ([7]; 5% glycine diet, LPS 10 mg/kg, control 60 min): 150 min
suppression of serum TNF increase ([7]; 5% glycine diet, LPS 10 mg/kg, p<0.05, control over 6000 pg/ml): at least 50%
release of TNF into the systemic circulation ([7]; following endotoxic shock): significantly reduces the release of TNF
ethanol concentration, Feces [8, 11]: 15 ± 11
ethanol concentration, Stomach [8, 11]: 26
ethanol concentration, Blood Tail Vein [8, 12]: 21 ± 13
ethanol concentration, Urine A.M. [8, 12]: 26 ± 25
ethanol concentration, Blood Portal [8, 13]: 10 ± 7
ethanol concentration, Breath [8, 13]: 5 ± 4
ethanol concentration, Urine 24 hr [8, 13]: 24 ± 8
alcohol in stomach contents (in words) ([8]; glycine-treated rats): reduced dramatically
reduction of the mean urine alcohol concentration ([8]; liquid 2% glycine diet): 50%
reduction of the mean urine alcohol concentration ([8]; liquid 5% glycine diet): 70%
daily urine alcohol concentration (in words) ([8]; liquid glycine diets): very low but were still cyclic
transfer of alcohol from the stomach into the blood ([8]; rat, in vivo): prevents the transfer of alcohol from the stomach into the blood
increase of serum AST (in words) ([9]; both glycine treatments, every point during the study): attenuated significantly
serum AST ([9]; liquid 2% glycine diet): 66 IU/L
serum AST ([9]; liquid 5% glycine diet): 100 IU/L
ischemic/endotoxic liver and organ damage, activation of Kupffer cells (Kupffer cells): prevents or at least substantially suppresses
protective effect compared with fish oil (infection): more profound and acute than that obtainable by fish oil treatment
concentration at 6 h (in vivo): 1730 ± 515 µM
cell damage (variety of cells): reduce cell damage
protection of suspended hepatocytes (suspended hepatocytes): not found to protect
survival (liver graft): did not improve survival

CCO [ethanol, reference compound]
ethanol concentration, Feces [8, 11]: 82 ± 21
ethanol concentration, Stomach [8, 11]: 761 ± 625
ethanol concentration, Blood Tail Vein [8, 12]: 199 ± 45
ethanol concentration, Blood Portal [8, 13]: 357 ± 65
ethanol concentration, Breath [8, 13]: 108 ± 12
ethanol concentration, Urine A.M. ([8]; rat, in vivo, po): 184 ± 12
urine alcohol level, upper end of cyclic fluctuation ([8]; rat, in vivo, po): greater than 300 mg/dl
